Source: patent US20230129258A1, “HETEROTANDEM BICYCLIC PEPTIDE COMPLEXES” (BicycleTx Limited, priority 2019, published 2023)
pEC50: −log10 of the molar value. Starred links: 1 amine or outer side, 2 acyl side, 3 side chain; linkers in the order of their positions; H or OH if unused. Positions of bridges follow the written chain, without caps; N, C: chain ends. Non-standard residues stand in square brackets, D forms with d. Primed or numbered codes have the meaning given here. Chains are numbered I, II in the order given. No end group written: not given here. X1 = O=C(CCOCCOCCOCCN(CCOCCOCCOCCn1cc(CCC(=O)[*:2])nn1)CCOCCOCCOCCn1cc(CCC(=O)[*:3])nn1)[*:1]; PYA″ = 4-pentynoic acid, acylating the D-Lys side chain, alkyne clicked to the linker azide; X2 = O=C(CCSCCC(=O)[*:1])N1CN(C(=O)CC[*:2])CN(C(=O)CC[*:3])C1; TATA = O=C(CC[*:1])N1CN(C(=O)CC[*:2])CN(C(=O)CC[*:3])C1; Ala(4-thiazolyl) = N[C@@H](Cc1cscn1)C(=O)O; Dip = N[C@H](C(=O)O)C(c1ccccc1)c1ccccc1; Hyp = O=C(O)[C@@H]1C[C@@H](O)CN1; hArg = N=C(N)NCCCC[C@H](N)C(=O)O; tBuAla = CC(C)(C)C[C@H](N)C(=O)O; Aad = N[C@@H](CCCC(=O)O)C(=O)O; Cba = N[C@@H](CC1CCC1)C(=O)O; NMeA = CN[C@@H](C)C(=O)O; Nle = CCCC[C@H](N)C(=O)O; Mpa = O=C(O)CCS

What was measured:
[1] = Pharmacokinetics in SD rats; assay type: in vivo; conditions: rat, in vivo, IV Inf (15 minutes)
Description: Male SD Rats were dosed with each heterotandem Bicycle peptide complex formulated in 25 mM Histidine HCl, 10% sucrose pH 7 by IV bolus or IV infusion (15 minutes). Serial bleeding (about 80 μL blood/time point) was performed via submandibular or saphenous vein at each time point. All blood samples were immediately transferred into prechilled microcentrifuge tubes containing 2 μL K2-EDTA (0.5M) as anti-coagulant and placed on wet ice. Blood samples were immediately processed for plasma by centrifugation at approximately 4° C., 3000 g. The precipitant including internal standard was immediately added into the plasma, mixed well and centrifuged at 12,000 rpm, 4° C. for 10 minutes. The supernatant was transferred into pre-labeled polypropylene microcentrifuge tubes, and then quick-frozen over dry ice. The samples were stored at […] or below as needed until analysis. 7.5 μL of the supernatant samples were directly injected for LC-MS/MS analysis using an Orbitrap Q Exactive in positive ion mode to determine the concentrations of analyte. Plasma concentration versus time data were analyzed by non-compartmental approaches using the Phoenix WinNonlin 6.3 software program. C0, CI, Vdss, T½, AUC(0-last), AUC(0-inf), MRT(0-last), MRT(0-inf) and graphs of plasma concentration versus time profile were reported.

[2] = biological target: CD137 (Homo sapiens, UniProt Q07011); test: CD137 reporter assay (Promega, Jurkat cells) in co-culture with EphA2-expressing tumor cells (A549, PC3, HT29); assay type: cell-based; set-up: host or cells: Jurkat reporter cells; conditions: for fold induction / Emax (fold induction over background): CD137 reporter coculture assay with PC3 tumor cells; for fold induction: read-out: Emax (fold induction over background); for pEC50: EC50, CD137 reporter coculture assay with PC3 tumor cells; for Fold Improvement over BCY9173, EC50 (nM) / Fold Improvement over Emax: co-culture with PC3; for Fold Improvement over Emax: versus BCY9173
Description: Culture medium, referred to as R1 media, is prepared by adding 1% FBS to RPMI-1640 (component of Promega kit CS196005). Serial dilutions of test articles in R1 are prepared in a sterile 96 well-plate. Add 25 μL per well of test articles or R1 (as a background control) to designated wells in a white cell culture plate. Tumor cells* are harvested and resuspended at a concentration of 400,000 cells/mL in R1 media. Twenty five (25) μL/well of tumor cells are added to the white cell culture plate. Jurkat cells (Promega kit CS196005, 0.5 mL) are thawed in the water bath and then added to 5 ml pre-warmed R1 media. Twenty five (25) μL/well of Jurkat cells are then added to the white cell culture plate. Incubate the cells and test articles for 6 h at 37° C., 5% CO2. At the end of 6 h, add 75 μL/well Bio-Glo™ reagent (Promega) and incubate for 10 min before reading luminescence in a plate reader (Clariostar, BMG). The fold change relative to cells alone (Jurkat cells+Cell line used in co-culture) is calculated and plotted in GraphPad Prism as log(agonist) vs response to determine EC50 (nM) and Fold Induction over background (Max).
The tumor cell types used in co-culture for EphA2 are A549, PC3 and HT29. The tumor cell type used in co-culture for PD-L1 is RKO.

Chain of CD137 (Q07011 24-255): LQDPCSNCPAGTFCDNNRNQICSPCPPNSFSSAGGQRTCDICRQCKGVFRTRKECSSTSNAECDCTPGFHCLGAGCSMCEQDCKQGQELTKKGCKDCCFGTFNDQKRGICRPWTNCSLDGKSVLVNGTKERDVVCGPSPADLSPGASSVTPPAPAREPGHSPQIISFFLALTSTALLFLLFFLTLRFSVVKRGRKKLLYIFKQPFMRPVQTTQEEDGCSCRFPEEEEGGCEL

Row | Substance | fold induction [2] | pEC50 [2] | further results
1 | I: A[hArg]DC[Hyp]LVNPLCLHP[dD]W[hArg]C-NH2 / II: Ac-C[tBuAla]PE[dK]PYCFADPY[Nle]C-NH2 / III: Ac-C[tBuAla]PE[dK]PYCFADPY[Nle]C-NH2 (linker I:4-I:11-I:18, II:1-II:8-II:15, III:1-III:8-III:15 via TATA; linker I:N-II:5-III:5 via X1) [BCY12724] |  |  | half-life ([1]; iv, read-out: T1/2 (converted)): 1.5 h; clearance ([1]; read-out: Clp): 13 mL/min/kg; Vd ([1]; read-out: Vdss): 1.2 L/kg
2 | I: A[hArg]DC[Hyp]LVNPLCLEP[dD]WTC-NH2 / II: Ac-C[tBuAla]PE[dK]PYCFADPY[Nle]CA-NH2 / III: Ac-C[tBuAla]PE[dK]PYCFADPY[Nle]CA-NH2 (linker I:4-I:11-I:18, II:1-II:8-II:15, III:1-III:8-III:15 via TATA; linker I:N-II:5-III:5 via X1) [BCY13044] | 49.5 | 9.68 | 
3 | I: A[hArg]DC[Hyp]LVNPLCLHP[dD]WTC-NH2 / II: Ac-C[tBuAla]PE[dK]PYCFADPY[Nle]CA-NH2 / III: Ac-C[tBuAla]PE[dK]PYCFADPY[Nle]CA-NH2 (linker I:4-I:11-I:18, II:1-II:8-II:15, III:1-III:8-III:15 via TATA; linker I:N-II:5-III:5 via X1) [BCY13043] | 52.7 | 9.96 | 
4 | I: A[hArg]DC[Hyp]LVNPLC[Aad]HP[dD]W[hArg]C-NH2 / II: Ac-C[tBuAla]PE[dK]PYCFADPY[Nle]CA-NH2 / III: Ac-C[tBuAla]PE[dK]PYCFADPY[Nle]CA-NH2 (linker I:4-I:11-I:18, II:1-II:8-II:15, III:1-III:8-III:15 via TATA; linker I:N-II:5-III:5 via X1) [BCY13285] |  | 9.59 | Emax (fold induction over background) [2]: 36.53
5 | I: Ac-C[Hyp]LVNPLCL[Dip]P[dD]WTC[dK]-NH2 / II: Ac-C[tBuAla]PE[dK]PYCFADPY[Nle]CA-NH2 / III: Ac-C[tBuAla]PE[dK]PYCFADPY[Nle]CA-NH2 (linker I:1-I:8-I:15, II:1-II:8-II:15, III:1-III:8-III:15 via TATA; linker I:16-II:5-III:5 via X1; C-terminus assumed) [BCY13274] |  | 9.72 | Emax (fold induction over background) [2]: 47.43
6 | I: [dA][hArg]DC[Hyp][Cba]VNPLCLEP[dA]WTC[dA]-NH2 / II: Ac-C[tBuAla]PE[dK]PYCFADPY[Nle]CA-NH2 / III: Ac-C[tBuAla]PE[dK]PYCFADPY[Nle]CA-NH2 (linker I:4-I:11-I:18, II:1-II:8-II:15, III:1-III:8-III:15 via TATA; linker I:N-II:5-III:5 via X1) [BCY13277] | 51.1 | 10.10 | 
7 | I: A[hArg]DC[Hyp]LVNPLCLEP[dD]W[hArg]C-NH2 / II: Ac-C[tBuAla]PE[dK]PYCFADPY[Nle]CA-NH2 / III: Ac-C[tBuAla]PE[dK]PYCFADPY[Nle]CA-NH2 (linker I:4-I:11-I:18, II:1-II:8-II:15, III:1-III:8-III:15 via TATA; linker I:N-II:5-III:5 via X1) [BCY13042] | 58.3 | 10.10 | 
8 | BCY14052: EphA2:CD137 1:2; BCY13920 + 2x BCY8928; linker N-(acid-PEG3)-N-bis(PEG3-azide) (peptide 1 A[hArg]DC[Hyp]LVNPLCLFP[dD]W[hArg]C; peptide 2 Ac-C[tBuAla]PE[dK](PYA″)PYCFADPY[Nle]CA; linker I:4-I:11-I:18 via TATA; linker II:1-II:8-II:15 via TATA (inferred); not fully specified (N-terminus, bridges); also: 2x chain 2 (2x BCY8928) on linker) |  |  | Fold Improvement over BCY9173, EC50 (nM) [2]: 4.16 fold; Fold Improvement over Emax [2]: 1.89 fold
9 | BCY14051: EphA2:CD137 1:2; BCY13919 + 2x BCY8928; linker N-(acid-PEG3)-N-bis(PEG3-azide) (peptide 1 A[hArg]DC[Hyp]LVNPLCL[Ala(4-thiazolyl)]P[dD]W[hArg]C; peptide 2 Ac-C[tBuAla]PE[dK](PYA″)PYCFADPY[Nle]CA; linker I:4-I:11-I:18, II:1-II:8-II:15 via TATA (inferred); not fully specified (N-terminus, bridges); also: 2x chain 2 (2x BCY8928) on linker) |  |  | Fold Improvement over BCY9173, EC50 (nM) [2]: 3.15 fold; Fold Improvement over Emax [2]: 1.88 fold
10 | I: C[Hyp]LVNPLCLEP[dD]WTC[dA]-NH2 / II: Ac-C[tBuAla]PE[dK]PYCFADPY[Nle]CA-NH2 / III: Ac-C[tBuAla]PE[dK]PYCFADPY[Nle]CA-NH2 (linker I:1-I:8-I:15, II:1-II:8-II:15, III:1-III:8-III:15 via TATA; linker I:N-II:5-III:5 via X1) [BCY13049] |  |  | Emax (fold induction over background) [2]: 46.03
11 | I: A[hArg]DC[Hyp]LVNPLCLEP[dD]WTC-NH2 / II: [Mpa][tBuAla]EE[dK]PYCFADPY[Nle]C-NH2 / III: [tBuAla]EE[dK]PYCFADPY[Nle]C-NH2 (linker I:4-I:11-I:18, II:1-II:8-II:15 via TATA; linker I:N-II:5-III:4 via X1; linker III:N-III:7-III:14 via X2) [BCY13140] |  | 9.92 | Emax (fold induction over background) [2]: 46.70
12 | I: [dA]EDC[Hyp]LVNPLCLEP[dD]WTC-NH2 / II: Ac-C[tBuAla]PE[dK]PYCFADPY[Nle]CA-NH2 / III: Ac-C[tBuAla]PE[dK]PYCFADPY[Nle]CA-NH2 (linker I:4-I:11-I:18, II:1-II:8-II:15, III:1-III:8-III:15 via TATA; linker I:N-II:5-III:5 via X1) [BCY13280] | 38.1 | 9.72 | 
13 | I: A[hArg]DC[Hyp]LVNPLCLHP[dE]W[hArg]C-NH2 / II: Ac-C[tBuAla]PE[dK]PYCFADPY[Nle]CA-NH2 / III: Ac-C[tBuAla]PE[dK]PYCFADPY[Nle]CA-NH2 (linker I:4-I:11-I:18, II:1-II:8-II:15, III:1-III:8-III:15 via TATA; linker I:N-II:5-III:5 via X1) [BCY12977] | 67.2 | 10.10 | 
14 | I: [NMeA][hArg]DC[Hyp]LVNPLCLEP[dD]WTC-NH2 / II: Ac-C[tBuAla]PE[dK]PYCFADPY[Nle]CA-NH2 / III: Ac-C[tBuAla]PE[dK]PYCFADPY[Nle]CA-NH2 (linker I:4-I:11-I:18, II:1-II:8-II:15, III:1-III:8-III:15 via TATA; linker I:N-II:5-III:5 via X1) [BCY13276] | 50.5 | 10.00 | 
15 | I: A[hArg]DC[Hyp]LVNPLCL[Dip]P[dD]W[hArg]C-NH2 / II: Ac-C[tBuAla]PE[dK]PYCFADPY[Nle]CA-NH2 / III: Ac-C[tBuAla]PE[dK]PYCFADPY[Nle]CA-NH2 (linker I:4-I:11-I:18, II:1-II:8-II:15, III:1-III:8-III:15 via TATA; linker I:N-II:5-III:5 via X1) [BCY13054] |  | 10.15 | Emax (fold induction over background) [2]: 36.53
16 | I: A[hArg]EC[Hyp]LVNPLCLHP[dE]W[hArg]C-NH2 / II: Ac-C[tBuAla]PE[dK]PYCFADPY[Nle]CA-NH2 / III: Ac-C[tBuAla]PE[dK]PYCFADPY[Nle]CA-NH2 (linker I:4-I:11-I:18, II:1-II:8-II:15, III:1-III:8-III:15 via TATA; linker I:N-II:5-III:5 via X1) [BCY12978] | 78.1 |  | 
17 | I: ADC[Hyp]LVNPLCLEP[dD]WTC-NH2 / II: Ac-C[tBuAla]PE[dK]PYCFADPY[Nle]CA-NH2 / III: Ac-C[tBuAla]PE[dK]PYCFADPY[Nle]CA-NH2 (linker I:3-I:10-I:17, II:1-II:8-II:15, III:1-III:8-III:15 via TATA; linker I:N-II:5-III:5 via X1) [BCY13282] | 40 |  | 
